Assay results reported in ChEMBL document CHEMBL4765432, “Design and synthesis of novel Flavone-based histone deacetylase inhibitors antagonizing activation of STAT3 in breast cancer” (Eur J Med Chem, 2020).
Activity calls are given as the source filed them. No cut-off for these calls is given here.

Tests used:
MDA-MB-231 [1] = assay: Induction of apoptosis in human MDA-MB-231 cells assessed as early apoptotic cells at 5 uM incubated for 72 hrs by annexinV-FITC and PI staining based flow cytometry analysis (reference value: 5.57 %); type: functional
Histone deacetylase 9 = Histone deacetylase 9 (Homo sapiens, UniProt Q9UKV0); assay: Inhibition of recombinant human N-terminal GST-tagged HDAC-9 (548 to end residues) expressed in baculovirus infected in Sf9 cells at 10 uM using Boc-Lys (q-Ac)-AMC as substrate incubated for 10 mins followed by substrate addition and measured after 30 mins by fluorescence based assay relative to control; details: time 40.0 min
Chain of Histone deacetylase 9 (Q9UKV0 whole entry): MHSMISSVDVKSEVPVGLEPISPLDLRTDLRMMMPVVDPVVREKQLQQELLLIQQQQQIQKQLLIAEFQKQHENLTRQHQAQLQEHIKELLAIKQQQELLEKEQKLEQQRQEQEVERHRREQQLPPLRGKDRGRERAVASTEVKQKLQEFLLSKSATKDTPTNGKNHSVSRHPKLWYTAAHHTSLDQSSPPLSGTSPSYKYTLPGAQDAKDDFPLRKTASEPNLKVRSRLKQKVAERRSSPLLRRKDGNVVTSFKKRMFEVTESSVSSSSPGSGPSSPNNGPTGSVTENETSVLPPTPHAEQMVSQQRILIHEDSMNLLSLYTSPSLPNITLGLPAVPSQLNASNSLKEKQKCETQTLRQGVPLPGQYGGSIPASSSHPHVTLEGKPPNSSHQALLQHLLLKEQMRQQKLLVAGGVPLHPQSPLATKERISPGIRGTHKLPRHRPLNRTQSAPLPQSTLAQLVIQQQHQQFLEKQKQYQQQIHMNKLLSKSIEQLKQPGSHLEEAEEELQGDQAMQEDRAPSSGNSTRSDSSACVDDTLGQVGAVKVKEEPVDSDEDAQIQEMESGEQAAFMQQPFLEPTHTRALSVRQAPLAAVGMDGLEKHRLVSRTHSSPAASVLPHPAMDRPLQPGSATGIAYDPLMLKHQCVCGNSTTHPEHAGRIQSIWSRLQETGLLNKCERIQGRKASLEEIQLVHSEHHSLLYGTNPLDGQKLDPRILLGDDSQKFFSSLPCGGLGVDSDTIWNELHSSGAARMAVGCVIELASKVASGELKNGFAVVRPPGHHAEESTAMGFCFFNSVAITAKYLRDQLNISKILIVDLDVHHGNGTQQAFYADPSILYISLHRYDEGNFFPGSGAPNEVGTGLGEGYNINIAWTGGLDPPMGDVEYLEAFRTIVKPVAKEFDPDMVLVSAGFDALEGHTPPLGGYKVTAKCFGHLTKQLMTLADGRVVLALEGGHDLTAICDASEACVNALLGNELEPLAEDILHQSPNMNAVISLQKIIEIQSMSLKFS

4T1 [2] = assay: Induction of cell cycle arrest in mouse 4T1 cells assessed as S phase accumulation at 1 uM incubated for 24 hrs by PI staining based flow cytometry analysis (reference value: 19.43 %); type: functional
SUM-159-PT = assay: Cytotoxicity against human SUM159PT cells assessed as reduction in cell viability incubated for 48 hrs by MTT assay; type: functional, cell-based
MDA-MB-231 [3] = assay: Induction of apoptosis in human MDA-MB-231 cells assessed as early apoptotic cells at 2.5 uM incubated for 72 hrs by annexinV-FITC and PI staining based flow cytometry analysis (reference value: 5.57 %); type: functional
[4] = Genotoxicity in Salmonella typhimurium TA1535 by Ames test; type: toxicity; details: salmonella enterica subsp. enterica serovar typhimurium
[5] = Half life in Sprague-Dawley rat at 20 mg/kg, po measured upto 12 hrs by LC-MS/MS analysis; type: ADME, organism-based; details: in vivo
4T1 [6] = assay: Induction of apoptosis in mouse 4T1 cells implanted in BALB/c mouse assessed as increase in caspase-3 cleavage by immunohistochemistry method; type: functional, cell-based
SMMC-7721 = assay: Cytotoxicity against human SMMC-7721 cells assessed as reduction in cell viability incubated for 48 hrs by MTT assay; type: functional, cell-based; details: SMMC-7721, 48 h
4T1 [7] = assay: Induction of apoptosis in mouse 4T1 cells assessed as early apoptotic cells at 1 uM incubated for 72 hrs by annexinV-FITC and PI staining based flow cytometry analysis (reference value: 1.65 %); type: functional
MDA-MB-468 = assay: Cytotoxicity against human MDA-MB-468 cells assessed as reduction in cell viability incubated for 48 hrs by MTT assay; type: functional, cell-based; details: MDA-MB-468, 48 h
[8] = molecular target: Polyamine deacetylase HDAC10 (Homo sapiens, UniProt Q969S8); assay: Inhibition of recombinant human N-terminal GST-tagged HDAC-10 (1 to 482 residues) expressed in baculovirus infected in Sf9 cells using Boc-Lys (q-Ac)-AMC as substrate incubated for 10 mins followed by substrate addition and measured after 30 mins by fluorescence based assay
Chain of Polyamine deacetylase HDAC10 (Q969S8 whole entry, the tested form may be a part): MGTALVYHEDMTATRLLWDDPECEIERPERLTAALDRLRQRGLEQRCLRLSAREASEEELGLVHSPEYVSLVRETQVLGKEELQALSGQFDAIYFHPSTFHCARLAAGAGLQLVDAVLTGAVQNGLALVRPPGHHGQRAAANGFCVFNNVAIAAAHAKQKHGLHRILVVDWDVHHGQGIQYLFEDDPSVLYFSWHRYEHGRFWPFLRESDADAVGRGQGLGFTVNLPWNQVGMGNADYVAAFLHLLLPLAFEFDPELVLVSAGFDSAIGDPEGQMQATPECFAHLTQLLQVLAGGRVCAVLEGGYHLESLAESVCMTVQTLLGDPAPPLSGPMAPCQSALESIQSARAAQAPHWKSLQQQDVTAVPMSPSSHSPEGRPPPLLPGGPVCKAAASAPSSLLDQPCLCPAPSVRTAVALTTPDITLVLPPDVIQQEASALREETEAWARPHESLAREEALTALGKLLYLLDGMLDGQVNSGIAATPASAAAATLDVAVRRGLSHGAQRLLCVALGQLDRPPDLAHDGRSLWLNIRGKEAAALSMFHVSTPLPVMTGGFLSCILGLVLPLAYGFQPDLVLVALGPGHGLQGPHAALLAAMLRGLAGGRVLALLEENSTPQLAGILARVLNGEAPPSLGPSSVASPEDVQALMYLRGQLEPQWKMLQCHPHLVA

PLC = assay: Cytotoxicity against human PLC cells assessed as reduction in cell viability incubated for 48 hrs by MTT assay; type: functional, cell-based
4T1 [9] = assay: Induction of apoptosis in mouse 4T1 cells assessed as necrotic cells at 2.5 uM incubated for 72 hrs by annexinV-FITC and PI staining based flow cytometry analysis (reference value: 5.00 %); type: functional
[10] = Cmax in Sprague-Dawley rat at 20 mg/kg, po measured upto 12 hrs by LC-MS/MS analysis; type: ADME, organism-based; parameters: route oral, dose 20 mg/kg, time <=12; details: in vivo
HepG2 = assay: Cytotoxicity against human HepG2 cells assessed as reduction in cell viability incubated for 48 hrs by MTT assay; type: functional, cell-based; details: HepG2, 48 h
MDA-MB-231 [11] = assay: Induction of apoptosis in human MDA-MB-231 cells assessed as late apoptotic cells at 2.5 uM incubated for 72 hrs by annexinV-FITC and PI staining based flow cytometry analysis (reference value: 3.79 %); type: functional
MDA-MB-231 [12] = assay: Induction of cell cycle arrest in human MDA-MB-231 cells assessed as increase in G0/G1 phase accumulation incubated for 24 hrs by flow cytometry analysis; type: functional, cell-based; details: dose 1-2 µM
[13] = Toxicity in C57BL/6 mouse assessed death of organism at 50 mg/kg, po observed for 20 days; type: organism-based; details: in vivo, 480 h, time 20 day
MDA-MB-231 [14] = assay: Induction of apoptosis in human MDA-MB-231 cells assessed as necrotic cells at 1 uM incubated for 72 hrs by annexinV-FITC and PI staining based flow cytometry analysis (reference value: 0.330 %); type: functional
MDA-MB-231 [15] = assay: Cytotoxicity against human MDA-MB-231 cells assessed as reduction in cell viability incubated for 48 hrs by MTT assay; type: functional, cell-based; details: MDA-MB-231, 48 h
MDA-MB-231 [16] = assay: Induction of apoptosis in human MDA-MB-231 cells xenografted in BALB/c mouse assessed as increase in caspase-3 cleavage by immunohistochemistry method; type: functional, cell-based
A-375 = assay: Cytotoxicity against human A-375 cells assessed as reduction in cell viability incubated for 48 hrs by MTT assay; type: functional, cell-based; details: A-375, 48 h
MDA-MB-231 [17] = assay: Induction of apoptosis in human MDA-MB-231 cells assessed as increase in PARP cleavage incubated for 48 hrs by Western blot analysis; type: functional, cell-based; details: dose 0.5-10 µM
4T1 [18] = assay: Induction of apoptosis in mouse 4T1 cells assessed as viable cells at 2.5 uM incubated for 72 hrs by annexinV-FITC and PI staining based flow cytometry analysis (reference value: 91.1 %); type: functional; details: read-out: Activity
4T1 [19] = assay: Induction of cell cycle arrest in mouse 4T1 cells assessed as G0/G1 phase accumulation at 2 uM incubated for 24 hrs by PI staining based flow cytometry analysis (reference value: 42.06 %); type: functional
Histone deacetylase 3 = Histone deacetylase 3 (Homo sapiens, UniProt O15379); assay: Inhibition of recombinant human C-terminal GST-tagged full length HDAC-3 expressed in baculovirus infected in Sf9 cells using Boc-Lys (q-Ac)-AMC as substrate incubated for 10 mins followed by substrate addition and measured after 30 mins by fluorescence based assay
Chain of Histone deacetylase 3 (O15379 whole entry): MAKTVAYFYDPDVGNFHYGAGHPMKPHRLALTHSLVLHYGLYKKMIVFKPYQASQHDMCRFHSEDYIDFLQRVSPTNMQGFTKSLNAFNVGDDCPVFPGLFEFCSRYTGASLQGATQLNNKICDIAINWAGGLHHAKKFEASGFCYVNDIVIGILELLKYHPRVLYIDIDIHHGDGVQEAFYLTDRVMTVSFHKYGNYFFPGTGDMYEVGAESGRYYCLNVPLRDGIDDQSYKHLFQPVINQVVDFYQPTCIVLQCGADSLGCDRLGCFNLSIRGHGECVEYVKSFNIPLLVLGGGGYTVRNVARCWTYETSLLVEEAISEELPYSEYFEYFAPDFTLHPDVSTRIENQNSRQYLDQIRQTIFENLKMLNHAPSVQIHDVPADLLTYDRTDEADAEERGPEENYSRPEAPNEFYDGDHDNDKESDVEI

4T1 [20] = assay: Induction of apoptosis in mouse 4T1 cells assessed as late apoptotic cells at 2.5 uM incubated for 72 hrs by annexinV-FITC and PI staining based flow cytometry analysis (reference value: 2.24 %); type: functional
Histone deacetylase 5 = Histone deacetylase 5 (Homo sapiens, UniProt Q9UQL6); assay: Inhibition of recombinant human N-terminal GST-tagged HDAC-5 (617 to end residues) expressed in baculovirus infected in Sf9 cells using Boc-Lys (q-Ac)-AMC as substrate incubated for 10 mins followed by substrate addition and measured after 30 mins by fluorescence based assay
Chain of Histone deacetylase 5 (Q9UQL6 whole entry): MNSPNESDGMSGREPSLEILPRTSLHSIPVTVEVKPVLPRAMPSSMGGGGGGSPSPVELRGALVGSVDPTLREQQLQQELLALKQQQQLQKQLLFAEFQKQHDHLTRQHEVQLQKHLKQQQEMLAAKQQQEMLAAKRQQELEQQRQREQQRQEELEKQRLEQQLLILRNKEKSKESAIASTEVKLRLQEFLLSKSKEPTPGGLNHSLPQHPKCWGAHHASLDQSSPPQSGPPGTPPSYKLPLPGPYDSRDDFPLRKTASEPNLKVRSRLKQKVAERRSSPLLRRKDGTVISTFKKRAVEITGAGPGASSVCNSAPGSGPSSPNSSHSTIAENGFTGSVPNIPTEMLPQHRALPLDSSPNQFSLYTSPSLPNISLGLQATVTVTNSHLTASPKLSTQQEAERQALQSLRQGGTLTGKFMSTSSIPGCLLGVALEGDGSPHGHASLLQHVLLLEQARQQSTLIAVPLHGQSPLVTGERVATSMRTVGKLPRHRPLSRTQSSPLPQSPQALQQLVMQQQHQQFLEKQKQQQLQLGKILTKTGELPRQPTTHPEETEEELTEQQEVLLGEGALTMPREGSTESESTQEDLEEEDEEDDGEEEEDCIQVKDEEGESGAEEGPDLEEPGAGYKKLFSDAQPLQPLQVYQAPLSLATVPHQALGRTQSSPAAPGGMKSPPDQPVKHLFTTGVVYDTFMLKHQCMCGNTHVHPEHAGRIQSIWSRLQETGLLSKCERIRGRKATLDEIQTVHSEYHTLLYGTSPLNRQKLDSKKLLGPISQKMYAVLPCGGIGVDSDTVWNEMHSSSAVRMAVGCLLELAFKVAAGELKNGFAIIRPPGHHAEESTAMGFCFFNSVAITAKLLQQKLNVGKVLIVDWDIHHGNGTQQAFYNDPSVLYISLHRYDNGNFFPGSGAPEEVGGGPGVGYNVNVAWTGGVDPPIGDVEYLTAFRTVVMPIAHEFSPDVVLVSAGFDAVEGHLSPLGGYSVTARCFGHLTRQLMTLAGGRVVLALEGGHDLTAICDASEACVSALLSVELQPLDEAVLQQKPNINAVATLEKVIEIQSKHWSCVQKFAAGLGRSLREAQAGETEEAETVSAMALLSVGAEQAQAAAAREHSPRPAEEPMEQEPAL

PC-3 = assay: Cytotoxicity against human PC-3 cells assessed as reduction in cell viability incubated for 48 hrs by MTT assay; type: functional, cell-based; details: PC-3, 48 h
[21] = Cytotoxicity against human B16-F10 cells assessed as reduction in cell viability incubated for 48 hrs by MTT assay; type: functional, cell-based; details: B16-F10, 48 h
Histone deacetylase 1 = Histone deacetylase 1 (Homo sapiens, UniProt Q13547); assay: Inhibition of recombinant human C-terminal GST-tagged full length HDAC-1 expressed in baculovirus infected in Sf9 cells using Boc-Lys (q-Ac)-AMC as substrate incubated for 10 mins followed by substrate addition and measured after 30 mins by fluorescence based assay
Chain of Histone deacetylase 1 (Q13547 whole entry): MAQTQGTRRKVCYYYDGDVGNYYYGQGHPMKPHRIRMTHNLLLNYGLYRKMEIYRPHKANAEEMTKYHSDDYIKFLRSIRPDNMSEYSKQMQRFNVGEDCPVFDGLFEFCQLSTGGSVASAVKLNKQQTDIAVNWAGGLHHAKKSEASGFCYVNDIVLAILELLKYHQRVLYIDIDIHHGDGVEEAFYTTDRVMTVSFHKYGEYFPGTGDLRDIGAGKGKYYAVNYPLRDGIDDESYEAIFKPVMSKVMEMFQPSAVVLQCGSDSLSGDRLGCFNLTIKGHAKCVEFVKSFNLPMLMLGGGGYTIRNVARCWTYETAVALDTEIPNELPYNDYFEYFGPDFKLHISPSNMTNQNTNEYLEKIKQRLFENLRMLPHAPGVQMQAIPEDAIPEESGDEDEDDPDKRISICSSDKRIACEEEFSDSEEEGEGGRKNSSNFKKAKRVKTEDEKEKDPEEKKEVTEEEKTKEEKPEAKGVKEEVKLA

4T1 [22] = assay: Induction of cell cycle arrest in mouse 4T1 cells assessed as increase in G0/G1 phase accumulation incubated for 24 hrs by flow cytometry analysis; type: functional, cell-based; details: dose 1-2 µM
[23] = AUC (0 to infinity) in Sprague-Dawley rat at 20 mg/kg, po measured upto 12 hrs by LC-MS/MS analysis; type: ADME, organism-based; parameters: route oral, dose 20 mg/kg, time <=12; details: in vivo

`CN(C)CCOc1ccc(-c2cc(=O)c3c(O)cc(OCCCCCC(=O)NO)cc3o2)cc1.Cl` showed an Activity (MDA-MB-231 [1]) of 55%, an inhibition (Histone deacetylase 9) of 26% and an Activity (4T1 [2]) of 30.99%. For the same compound, the IC50 (SUM-159-PT) was 277 nM, the Activity (MDA-MB-231 [3]) was 50.1% and the Activity [4] was “Non-Toxic”. The half-life [5] was 14.9 min, the Activity (4T1 [6]) was “Active” and the IC50 (SMMC-7721) was 530 nM. It also gave an Activity (4T1 [7]) of 15.5%, an IC50 (MDA-MB-468) of 3400 nM and an IC50 [8] of 247 nM. The IC50 (PLC) was 582 nM, the Activity (4T1 [9]) was 1.8% and the Cmax [10] was 1280 ng/mL. For the same compound, the IC50 (HepG2) was 1160 nM, the Activity (MDA-MB-231 [11]) was 24.3% and the Activity (MDA-MB-231 [12]) was “Dose-dependent effect”. The Activity [13] was “Non-Toxic”, the Activity (MDA-MB-231 [14]) was 0.13% and the IC50 (MDA-MB-231 [15]) was 2050 nM. The Activity (MDA-MB-231 [16]) was “Active”, the IC50 (A-375) was 1180 nM and the Activity (MDA-MB-231 [17]) was “Dose-dependent effect”. The viability at 2.5 µM (4T1 [18]) was 32.9%, the Activity (4T1 [19]) was 62.91% and the IC50 (Histone deacetylase 3) was 79.2 nM. For the same compound, the Activity (4T1 [20]) was 33.9%, the IC50 (Histone deacetylase 5) was > 10000 nM and the IC50 (PC-3) was 1920 nM. The IC50 [21] was 510 nM, the IC50 (Histone deacetylase 1) was 36 nM and the Activity (4T1 [22]) was “Dose-dependent effect”. For the same compound, the AUC(0-inf) [23] was 1640 ng·h/mL.
